In patent publication US8822462B2, “Subunit selective NMDA receptor potentiators for the treatment of neurological conditions” (Emory University, priority 2009, dated 2014):
One block for each compound: values may come before it.

Experiments:
[1] = test system: native NMDA receptor responses in subthalamic neurons; assay: Patch clamp recording from slices of subthalamic nuclei, pressure-applied NMDA/glycine; format: cell-based
[2] = target: T1, NR1/NR2A (Homo sapiens, UniProt Q12879); assay: Two electrode voltage clamp, Xenopus laevis oocytes expressing NR1/NR2A; format: cell-based; conditions: at 100 μM; read-out: 2A percent effect at the maximum tested concentration
T1 construct: expressed in transfected cells; host or cells: Xenopus laevis oocytes
Protocol: (§1) In the table above, potency is expressed as fitted EC50 value to average composite concentration-effect data constructed from current responses recorded under two electrode voltage clamp from Xenopus laevis oocytes expressing either NR1/NR2A, B, C, or D, GluR1, or GluR6. No effect means less than 20% change in response amplitude at 30 μM of drug.

[3] = target: T2, NR1/NR2B (Homo sapiens, UniProt Q05586+Q13224); assay: Two electrode voltage clamp, Xenopus laevis oocytes expressing NR1/NR2B; format: cell-based; conditions: at 100 μM; read-out: 2B percent effect at the maximum tested concentration
T2 construct: expressed in transfected cells; host or cells: Xenopus laevis oocytes
Protocol: as §1

[4] = target: T3, NR1/NR2D (Homo sapiens, UniProt O15399); assay: Single channel currents in excised outside-out patches; format: cell-based; parameters: expressed in transfected cells
Text: Values are mean+SEM (n=14-20). […] C is the closed level; broken line is the open level.
Our initial studies varying the compound structure confirm that there are strict requirements for the position and type of substituent on the isoquinoline backbone (see Table 3).
Target sequence in this assay (O15399 28-1336, other chains not shown): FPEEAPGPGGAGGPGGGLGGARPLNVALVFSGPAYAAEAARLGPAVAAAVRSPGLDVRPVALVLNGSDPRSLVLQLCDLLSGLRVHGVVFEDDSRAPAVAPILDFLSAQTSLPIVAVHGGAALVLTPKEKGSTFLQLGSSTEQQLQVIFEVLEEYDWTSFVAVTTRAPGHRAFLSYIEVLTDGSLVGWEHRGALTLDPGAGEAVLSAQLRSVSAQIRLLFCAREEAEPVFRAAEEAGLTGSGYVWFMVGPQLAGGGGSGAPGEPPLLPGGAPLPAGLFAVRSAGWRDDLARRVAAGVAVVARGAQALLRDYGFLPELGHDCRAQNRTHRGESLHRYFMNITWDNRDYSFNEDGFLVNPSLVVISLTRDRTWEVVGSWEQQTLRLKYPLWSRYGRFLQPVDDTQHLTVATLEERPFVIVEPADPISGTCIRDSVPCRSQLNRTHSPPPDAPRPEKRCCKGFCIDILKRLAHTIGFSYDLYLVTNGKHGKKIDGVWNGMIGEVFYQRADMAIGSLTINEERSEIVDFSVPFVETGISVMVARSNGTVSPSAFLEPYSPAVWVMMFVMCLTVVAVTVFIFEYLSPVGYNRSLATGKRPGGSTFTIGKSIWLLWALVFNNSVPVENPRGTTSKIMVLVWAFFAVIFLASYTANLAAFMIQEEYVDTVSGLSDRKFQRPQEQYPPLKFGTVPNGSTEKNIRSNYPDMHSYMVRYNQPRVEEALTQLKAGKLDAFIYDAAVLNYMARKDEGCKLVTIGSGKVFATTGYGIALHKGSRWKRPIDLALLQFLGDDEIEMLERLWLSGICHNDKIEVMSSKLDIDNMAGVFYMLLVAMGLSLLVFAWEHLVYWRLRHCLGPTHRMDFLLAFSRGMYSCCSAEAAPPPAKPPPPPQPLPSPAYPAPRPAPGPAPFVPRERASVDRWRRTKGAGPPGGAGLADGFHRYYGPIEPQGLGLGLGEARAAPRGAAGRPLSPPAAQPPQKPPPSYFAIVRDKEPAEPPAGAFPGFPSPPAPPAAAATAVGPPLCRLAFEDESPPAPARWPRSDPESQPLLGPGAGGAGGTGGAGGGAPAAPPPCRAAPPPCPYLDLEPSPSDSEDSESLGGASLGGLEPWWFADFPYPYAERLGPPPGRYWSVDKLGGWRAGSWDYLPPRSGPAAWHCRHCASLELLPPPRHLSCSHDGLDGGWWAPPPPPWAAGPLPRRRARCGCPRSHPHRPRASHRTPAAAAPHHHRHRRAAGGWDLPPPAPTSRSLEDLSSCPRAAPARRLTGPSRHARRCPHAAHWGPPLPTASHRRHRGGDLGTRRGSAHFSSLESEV

[5] = target: NR1/NR2D (Homo sapiens, UniProt O15399+Q05586); assay: Two electrode voltage clamp, Xenopus laevis oocytes expressing NR1/NR2D; conditions: for Emax: read-out: 2D Max; for activity at 100 µM: read-out: 2D percent effect at the maximum tested concentration, at 100 μM
[6] = target: T3, NR1/NR2D; assay: as above
Target sequence in this assay (O15399 28-1336, species assumed, other chains not shown): as the sequence (O15399 28-1336, other chains not shown) above

[7] = target: T4, NR1/NR2C (Homo sapiens, UniProt Q05586+Q14957); assay: Two electrode voltage clamp, Xenopus laevis oocytes expressing NR1/NR2C; format: cell-based; conditions: for IC50: fitted to composite concentration-effect data, read-out: 2C IC50; for Emax: maximal effect of fit, read-out: 2C Max; for activity at 100 µM: read-out: 2C percent effect at the maximum tested concentration
T4 construct: expressed in transfected cells; host or cells: Xenopus laevis oocytes

[8] = target: T5, NR1/NR2C (Homo sapiens, UniProt Q14957); assay: as above; format: cell-based
T5 construct: expressed in transfected cells; host or cells: Xenopus laevis oocytes

[9] = test system: recombinant NMDA receptors; assay: Voltage and pH dependence of potentiation of recombinant NMDA receptors; format: cell-based
Text: FIG. 2A illustrates the subunit-selectivity with which the compounds of Formula A, including a specific compound herein referred to as DIQ-1180, acts on recombinant NMDA receptors. The structure of DIQ-1180 is shown below.
The Hill slope at both receptors for all analogues was greater than 1, consistent with a cooperative effect of binding at two sites.

T4 sequence (Q14957 20-1233, species assumed, other chains not shown): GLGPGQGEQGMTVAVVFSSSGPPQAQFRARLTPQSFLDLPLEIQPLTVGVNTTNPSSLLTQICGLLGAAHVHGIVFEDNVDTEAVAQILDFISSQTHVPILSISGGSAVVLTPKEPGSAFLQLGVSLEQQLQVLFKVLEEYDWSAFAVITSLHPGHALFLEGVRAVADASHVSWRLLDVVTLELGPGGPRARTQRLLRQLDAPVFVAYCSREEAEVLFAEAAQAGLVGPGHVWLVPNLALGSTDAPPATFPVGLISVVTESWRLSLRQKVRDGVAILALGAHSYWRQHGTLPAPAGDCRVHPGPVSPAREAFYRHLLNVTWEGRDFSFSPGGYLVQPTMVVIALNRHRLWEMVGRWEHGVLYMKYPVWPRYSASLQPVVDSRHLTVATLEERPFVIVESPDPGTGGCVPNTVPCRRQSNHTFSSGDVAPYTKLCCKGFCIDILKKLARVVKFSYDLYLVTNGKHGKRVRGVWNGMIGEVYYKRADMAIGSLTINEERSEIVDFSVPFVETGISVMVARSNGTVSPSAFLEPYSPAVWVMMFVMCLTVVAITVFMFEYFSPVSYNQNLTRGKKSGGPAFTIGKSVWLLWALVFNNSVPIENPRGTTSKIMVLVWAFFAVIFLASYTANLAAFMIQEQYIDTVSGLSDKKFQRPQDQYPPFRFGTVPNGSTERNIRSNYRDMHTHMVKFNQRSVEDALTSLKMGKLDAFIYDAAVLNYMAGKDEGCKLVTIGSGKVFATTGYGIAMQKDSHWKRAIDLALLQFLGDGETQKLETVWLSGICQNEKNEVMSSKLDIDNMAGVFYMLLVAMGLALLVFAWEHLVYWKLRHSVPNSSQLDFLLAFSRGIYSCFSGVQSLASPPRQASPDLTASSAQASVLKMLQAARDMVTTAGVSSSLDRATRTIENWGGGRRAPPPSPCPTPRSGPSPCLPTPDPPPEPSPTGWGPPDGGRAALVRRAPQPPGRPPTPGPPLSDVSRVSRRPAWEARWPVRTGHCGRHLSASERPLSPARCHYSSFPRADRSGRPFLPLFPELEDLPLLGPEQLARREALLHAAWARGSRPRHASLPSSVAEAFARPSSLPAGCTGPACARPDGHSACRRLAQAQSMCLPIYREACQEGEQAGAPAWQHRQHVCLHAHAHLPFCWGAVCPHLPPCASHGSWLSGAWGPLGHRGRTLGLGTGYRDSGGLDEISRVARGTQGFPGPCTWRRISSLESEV
Sequence of NR1/NR2D (Homo sapiens, UniProt O15399+Q05586) (O15399 28-1336, species assumed, other chains not shown): as the sequence (O15399 28-1336, other chains not shown) above
T1 sequence (Q12879 23-1464, species assumed, other chains not shown): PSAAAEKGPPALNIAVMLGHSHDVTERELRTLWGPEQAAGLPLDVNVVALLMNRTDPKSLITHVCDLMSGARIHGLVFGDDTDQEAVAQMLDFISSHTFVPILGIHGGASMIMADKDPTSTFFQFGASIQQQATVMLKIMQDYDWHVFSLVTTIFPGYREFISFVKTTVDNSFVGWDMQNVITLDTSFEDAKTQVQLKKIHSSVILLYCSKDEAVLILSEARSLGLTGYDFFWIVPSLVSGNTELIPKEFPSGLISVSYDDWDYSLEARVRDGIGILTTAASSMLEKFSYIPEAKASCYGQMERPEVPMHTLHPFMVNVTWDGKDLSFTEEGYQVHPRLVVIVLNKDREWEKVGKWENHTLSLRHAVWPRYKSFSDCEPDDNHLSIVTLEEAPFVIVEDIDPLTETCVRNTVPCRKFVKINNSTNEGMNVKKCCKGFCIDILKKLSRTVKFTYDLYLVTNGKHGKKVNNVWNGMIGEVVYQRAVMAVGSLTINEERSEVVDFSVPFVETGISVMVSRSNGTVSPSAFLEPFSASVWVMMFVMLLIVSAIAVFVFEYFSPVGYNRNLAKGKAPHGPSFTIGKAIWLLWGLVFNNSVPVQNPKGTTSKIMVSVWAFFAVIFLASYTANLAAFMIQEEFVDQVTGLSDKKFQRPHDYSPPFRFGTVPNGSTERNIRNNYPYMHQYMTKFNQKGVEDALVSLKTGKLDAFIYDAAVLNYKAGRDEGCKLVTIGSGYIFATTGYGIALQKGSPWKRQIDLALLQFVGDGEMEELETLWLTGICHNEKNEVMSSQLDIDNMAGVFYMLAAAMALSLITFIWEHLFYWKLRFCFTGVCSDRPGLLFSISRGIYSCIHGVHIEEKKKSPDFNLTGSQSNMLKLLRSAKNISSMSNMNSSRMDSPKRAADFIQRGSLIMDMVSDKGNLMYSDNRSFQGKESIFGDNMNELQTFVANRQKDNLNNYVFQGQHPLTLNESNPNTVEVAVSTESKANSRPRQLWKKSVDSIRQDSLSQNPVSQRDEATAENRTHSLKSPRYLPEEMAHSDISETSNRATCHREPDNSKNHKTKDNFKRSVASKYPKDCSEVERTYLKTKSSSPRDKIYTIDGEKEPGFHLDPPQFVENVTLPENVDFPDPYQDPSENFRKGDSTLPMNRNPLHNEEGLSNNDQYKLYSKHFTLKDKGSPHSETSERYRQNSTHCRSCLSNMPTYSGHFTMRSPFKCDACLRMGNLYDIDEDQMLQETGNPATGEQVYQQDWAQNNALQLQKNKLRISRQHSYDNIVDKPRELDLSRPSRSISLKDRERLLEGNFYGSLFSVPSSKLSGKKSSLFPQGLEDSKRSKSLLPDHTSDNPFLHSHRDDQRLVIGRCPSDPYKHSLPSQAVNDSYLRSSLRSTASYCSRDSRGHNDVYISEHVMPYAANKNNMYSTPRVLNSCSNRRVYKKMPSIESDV
T5 sequence (Q14957 20-1233, species assumed, other chains not shown): as the sequence (Q14957 20-1233, species assumed, other chains not shown) above

Compound: NC(CCCP(=O)(O)O)C(=O)O (racemic) [DL-APV, reference compound]
current response to pressure-applied NMDA/glycine ([1]; 100 μM): blocked

Compound: COc1ccc(OCC2c3cc(OC)c(OC)cc3CCN2C(=O)c2ccccc2)cc1 (stereo not shown) [compound 1180]
current response to pressure-applied NMDA/glycine ([1]; 30 μM, listed as DIQ-1180): potentiated | activity at 100 µM [2]: 81% | activity at 100 µM [3]: 67% | total open probability (nPo) ([4]; glutamate/glycine-activated unitary currents, increased from 0.083 without compound): 0.207 | opening frequency of recombinant NR1/NR2D single channel currents ([4]; maximally effective glutamate/glycine, FIG. 2B): increased the opening frequency | opening frequency ([4]; reversed by washout): 178 % of control | EC50 [5]: 13 µM | IC50 [5]: 11 µM | Emax [5]: 156% | maximal potentiation at NR2D-containing receptors ([6]; Example 1): 162% | EC50 ([7]; Example 1, read-out: EC50 value for potentiation of NR2C-containing receptors): 11 µM | IC50 [7]: 12 µM | Emax [7]: 145% | maximal potentiation at NR2C-containing receptors ([8]; Example 1): 181% | voltage dependence of potentiating actions ([9]; n=7): voltage-independent | pH dependence of potentiating actions ([9]; n=10-16): pH-independent

2D percent effect at the maximum tested concentration ([6]; at 100 μM): 87% at 100 μM | 2C percent effect at the maximum tested concentration ([8]; at 100 μM): 98% at 100 μM
Compound: CSC1=NCCN1C(=O)c1ccc2ccccc2c1 [compound 1397]

Compound: COc1ccc(OCC2c3cc(OC)c(OC)cc3CCN2C(=O)c2cccc(C)c2)cc1 (stereo not shown) [compound 1425]
activity at 100 µM [2]: 74% | activity at 100 µM [3]: 94% | IC50 [5]: 5 µM | Emax [5]: 172% | IC50 [7]: 5 µM | Emax [7]: 208%

activity at 100 µM [2]: 100% | activity at 100 µM [3]: 101% | activity at 100 µM [5]: 81% | activity at 100 µM [7]: 77%
Compound: COc1cc2c(cc1OC)C(COc1ccccc1)N(C(=O)c1ccccc1)CC2 (stereo not shown) [1180-2]

activity at 100 µM [2]: 105% | activity at 100 µM [3]: 87% | activity at 100 µM [5]: 86% | activity at 100 µM [7]: 97%
Compound: Cc1cc(NC(=O)c2ccc(C(C)(C)C)cc2)no1 [compound 1401]

activity at 100 µM [2]: 80% | activity at 100 µM [3]: 89% | activity at 100 µM [5]: 86% | activity at 100 µM [7]: 96%
Compound: CCOC(=O)c1cc(C)sc1NC(=O)c1ccc(C(C)(C)C)cc1 [compound 1400]
